Key:
hMATE2K = biological target: T1, hMATE2K (Homo sapiens, UniProt Q86VL8); test: Inhibition of hMATE2K-mediated MPP+ uptake, stably transfected 293 cells; assay type: cell-based; conditions: substrate 3 µM MPP+, median (95% CI)
T1 construct: expressed in transfected cells; host or cells: HEK-293 (293) cells, pEBTetD plasmid, doxycycline-induced
From the text: (§1) We characterized the inhibitory potential of iohexol on major drug transporters recommended by regulatory agencies, which were previously assessed in a clinical transporter phenotyping cocktail study. These transporters include hOAT1, hOAT3, hOCT1, hOCT2, hMATE1, hMATE2K, human organic anion transporter polypeptides (hOATP)1B1, hOATP1B3, and human multidrug resistance protein (hMDR)1. Additionally, we investigated whether iohexol is a substrate for any of the renal transporters among these, including hOAT1/3, hOCT1/2, and hMATE1/2K. Cell‐based uptake assays were used to assess the activities of hOAT1/3, hOCT1/2, hMATE1/2K, and hOATP1B1/1B3. Inside‐out membrane vesicle uptake assays were used to evaluate the activity of hMDR1.
To determine the maximal inhibitory potential of iohexol, intracellular accumulation of a standard substrate was measured with and without the clinically relevant highest concentrations of iohexol. Control inhibitors were tested in each experiment.
In all subsequent in vitro studies, control experiments were conducted to validate the results. These included positive controls for substrates and inhibitors, as well as cells either without transporter expression or transfected with an empty vector, and control vesicles. Each condition, including cells or vesicles with the transporter and their respective controls, was analyzed in at least three replicates. For detailed information on materials, methods, and data analysis techniques used, refer to the Supporting Information. […]
(§2) R version 4.2.1 (R Foundation for Statistical Computing, Vienna, Austria) was used for statistical evaluations and data visualization. The data analysis approach for the in vitro study was detailed by Hsin CH et al..^1 In brief, for transport assays, the initial uptake rate was calculated by normalizing the substrate concentration to both the protein concentration and the incubation time for each dish or well. The transporter-mediated uptake rate (net uptake) was determined by performing an element-wise subtraction of uptake rates from different conditions. […]

hOCT1 = biological target: T2, hOCT1 (Homo sapiens, UniProt O15245); test: Substrate assessment: iohexol uptake in 293 cells expressing hOCT1 vs control; assay type: in vitro ADME; conditions: 10 μM iohexol, median (95% CI)
T2 construct: expressed in transfected cells; host or cells: HEK-293 (293) cells, pEBTetD plasmid, doxycycline-induced
T2 sequence (O15245 1-554): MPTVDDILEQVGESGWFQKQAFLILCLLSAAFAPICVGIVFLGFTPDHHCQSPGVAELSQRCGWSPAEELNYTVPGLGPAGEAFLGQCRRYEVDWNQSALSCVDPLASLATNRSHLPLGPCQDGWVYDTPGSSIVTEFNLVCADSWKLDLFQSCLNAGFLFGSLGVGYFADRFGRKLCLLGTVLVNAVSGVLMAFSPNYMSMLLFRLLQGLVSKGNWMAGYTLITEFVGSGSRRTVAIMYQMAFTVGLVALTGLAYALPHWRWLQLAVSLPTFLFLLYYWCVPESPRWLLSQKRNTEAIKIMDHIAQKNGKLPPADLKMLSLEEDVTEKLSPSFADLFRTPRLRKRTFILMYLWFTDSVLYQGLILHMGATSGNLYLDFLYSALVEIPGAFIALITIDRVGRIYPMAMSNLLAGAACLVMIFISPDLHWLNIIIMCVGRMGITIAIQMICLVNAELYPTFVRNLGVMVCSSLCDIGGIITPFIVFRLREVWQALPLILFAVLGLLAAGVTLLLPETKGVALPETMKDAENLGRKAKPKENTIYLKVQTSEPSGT
From the text: as §1
For substrate assessments, iohexol was incubated with stably transfected HEK‐293 cells expressing one of the following transporters: hOAT1, hOAT3, hOCT1, hOCT2, hMATE1, or hMATE2K, as well as with control cells lacking transporter expression. Stably transfected cell lines containing pEBTetD plasmids with wild‐type human transporter cDNAs were generated as previously described. Transporter expression was induced by adding 1 μg/mL doxycycline to the growth medium for at least 20 h. Iohexol would be considered a substrate for these transporters if: (1) the ratio of iohexol uptake in cells expressing the transporter to that in control cells was ≥ 2, and (2) a known inhibitor of the transporter reduced iohexol uptake to ≤ 50% at concentrations ≥ 10 times its inhibition constant or half‐maximal inhibitory concentration.
Uptake assays were performed using stably transfected 293 cells, with or without the expression of one of the following transporters: hOAT1, hOAT3, hOCT1, hOCT2, hMATE1, or hMATE2K, as previously described.^1
For the substrate assessment, cells were incubated with 10 µM iohexol for 10 minutes and 30 minutes for each transporter. Inhibition assays were performed using specific standard substrates for each transporter: 10 µM para-aminohippuric acid (PAH) for hOAT1, 3 µM estrone-3-sulfate (E3S) for hOAT3, 50 µM metformin for hOCT1, 5 µM metformin for hOCT2, and 3 µM 1-methyl-4-phenylpyridinium (MPP+) for hMATE1 and hMATE2K. […]
as §2

OCT2 = system: OCT2; design: method as in ref 15 Yang et al.; conditions: HK‐2 cells; ref 15 Yang et al.; cited from earlier work

T1 sequence (Q86VL8 1-566 isoform Q86VL8-3): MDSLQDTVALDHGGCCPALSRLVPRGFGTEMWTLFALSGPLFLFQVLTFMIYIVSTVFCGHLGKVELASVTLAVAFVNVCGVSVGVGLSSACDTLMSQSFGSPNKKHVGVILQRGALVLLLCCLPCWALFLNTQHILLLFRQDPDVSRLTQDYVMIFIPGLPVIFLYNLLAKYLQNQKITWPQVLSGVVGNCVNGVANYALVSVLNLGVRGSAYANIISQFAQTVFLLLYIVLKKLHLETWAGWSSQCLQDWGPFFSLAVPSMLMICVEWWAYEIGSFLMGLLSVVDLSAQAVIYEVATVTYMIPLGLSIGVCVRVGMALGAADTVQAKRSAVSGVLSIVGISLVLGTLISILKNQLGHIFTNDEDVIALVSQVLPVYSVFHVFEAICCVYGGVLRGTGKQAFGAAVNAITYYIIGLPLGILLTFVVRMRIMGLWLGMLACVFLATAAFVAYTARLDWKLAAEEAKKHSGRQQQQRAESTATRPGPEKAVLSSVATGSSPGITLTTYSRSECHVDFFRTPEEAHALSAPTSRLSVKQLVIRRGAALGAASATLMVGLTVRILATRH

CC(=O)N(CC(O)CO)c1c(I)c(C(=O)NCC(O)CO)c(I)c(C(=O)NCC(O)CO)c1I (centres unmarked) [iohexol]
Inhibitory effect (% reduction of specific activity) (hMATE2K; 20 mM iohexol): < 30%
inhibition at 1000 µM (hMATE2K; HEK293, 1 mM iohexol, read-out: Inhibitory effect (% reduction of specific activity)): 14%
inhibition at 20000 µM (hMATE2K; HEK293, 20 mM iohexol, read-out: Inhibitory effect (% reduction of specific activity)): 26%
Differences in intracellular accumulation (expression on minus off) (hOCT1; 10 minutes): 0.16 (-1.8 to 0.79) pmol/mg protein
Uptake ratio (transporter-expressing vs non-expressing cells) (hOCT1; 10 minutes): 1 (0.84 to 1.1)
Differences in intracellular accumulation (expression on minus off) (hOCT1; 30 minutes): -0.51 (-1.1 to -0.15) pmol/mg protein
Uptake ratio (transporter-expressing vs non-expressing cells) (hOCT1; 30 minutes): 0.89 (0.79 to 0.97)
Expression of OCT2 (OCT2): downregulated

— PMC11788587, “Validating Low‐Dose Iohexol as a Marker for Glomerular Filtration Rate by In Vitro and In Vivo Studies” (Clinical and Translational Science, 2025)
